The values that follow are results of earlier work, collected in US8592371B2, “Aminotetrahydropyrans as dipeptidyl peptidase-IV inhibitors for the treatment or prevention of diabetes” (Merck Sharp & Dohme Corp, priority 2008, dated 2013).

The test system of one data set is cardiac allograft. The note with it: rats; from day 7 to day 14; cited from earlier work.
In another data set the test system is hematopoiesis. The note with it: mouse, cyclophosphamide-induced neutropenia; cited from earlier work.
The target in another data set is DPP-4 (Homo sapiens (Human), UniProt P27487). The note with it: cited from earlier work.
Sequence of DPP-4 (P27487 39-766, species assumed): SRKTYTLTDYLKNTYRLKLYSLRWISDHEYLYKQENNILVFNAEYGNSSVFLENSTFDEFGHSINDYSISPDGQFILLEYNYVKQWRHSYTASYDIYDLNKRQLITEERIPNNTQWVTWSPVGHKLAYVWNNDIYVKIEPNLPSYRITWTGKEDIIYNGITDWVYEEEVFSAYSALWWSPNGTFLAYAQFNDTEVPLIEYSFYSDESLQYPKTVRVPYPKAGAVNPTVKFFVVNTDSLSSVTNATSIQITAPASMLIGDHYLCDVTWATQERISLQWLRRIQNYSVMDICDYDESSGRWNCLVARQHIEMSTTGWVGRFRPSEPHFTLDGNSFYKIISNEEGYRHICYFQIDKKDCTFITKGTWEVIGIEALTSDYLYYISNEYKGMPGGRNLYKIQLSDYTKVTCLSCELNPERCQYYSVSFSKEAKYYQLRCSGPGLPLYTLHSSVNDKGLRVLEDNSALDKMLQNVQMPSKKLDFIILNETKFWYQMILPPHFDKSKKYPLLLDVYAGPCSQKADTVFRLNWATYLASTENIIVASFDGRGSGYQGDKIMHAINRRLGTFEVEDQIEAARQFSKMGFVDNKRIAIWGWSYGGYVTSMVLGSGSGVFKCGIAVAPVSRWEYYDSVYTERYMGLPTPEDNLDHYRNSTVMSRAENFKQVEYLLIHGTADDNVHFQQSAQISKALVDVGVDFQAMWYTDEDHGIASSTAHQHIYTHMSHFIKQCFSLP

As to `CC(C)N1CCC(c2ccccc2)(c2ccccc2)CC1` [Prodipine, Pro-Pro-diphenyl-phosphonate], in the data set with cardiac allograft, the cardiac allograft survival entry is on record as “double”.
As for `CC(C)[C@H](N)C(=O)N1CCC[C@H]1B(O)O` [Val-Boro-Pro], the hematopoiesis result with hematopoiesis is “stimulated hematopoiesis”.
As for diprotin A, on DPP-4, the “degradation of GRF in plasma to GRF[3-44]” value is recorded as “prevented”.
